The results in this text go back to US5134150A, “Inhibition of the 5-lipoxygenase pathway” (priority 1989, dated 1992).

Test [1] relates to Arachidonic Acid-Induced Rat Paw Edema. Nature of the test: Arachidonic acid-induced rat paw swelling. It is filed as in vivo, rat (male Lewis). The text has this:
(§1) In the following Examples where mice were used, they were male Balb/c mice (20-28 g), and where rats were used, they were male Lewis rats (180-210 g). All mice and rats were obtained from Charles River Breeding Laboratories, Kingston, N.Y. Within a single experiment, mice and rats were sex and age matched.
Auranofin, phenidone, indomethacin, naproxen, and ibuprofen were each used as the free base. The compounds of Formula (I) were used either as the free base or in the appropriate salt form. Levamisole was used as the hydrochloride salt. The compounds were homogenized in 0.5% tragacanth. Compounds were administered by gavage at the indicated dose in a final volume of 10 ml/kg. Nordihydroguaiaretic acid (NDGA) was solubilized in dimethylacetamide and diluted with olive oil for subcutaneous administration.
After determining pretreatment paw volumes by plethysmography by the method of Webb and Griswold, J. Pharmacol. Methods, 12, 149-153 (1984), rats were given test compound or vehicle one hour prior to the subplantar injection of 0.1 ml of 1 mg/ml arachidonic acid. Paw volumes were then remeasured and compared to pretreatment values and the increase in paw volume was expressed as mean values ± S.D.

Test [2] has as its system LTB4 synthesis by peritoneal exudate cells. Kind of test: Ex vivo production of LTB4 from peritoneal exudate cells of drug-treated mice. It is filed as in vivo, mouse. As to conditions: for inhibition at 200 mg/kg: Mus musculus, po, 200 mg/kg p.o. The text has this: In the following Examples where mice were used, they were male Balb/c mice (20-28 g), and where rats were used, they were male Lewis rats (180-210 g). All mice and rats were obtained from Charles River Breeding Laboratories, Kingston, N.Y. Within a single experiment, mice and rats were sex and age matched. Auranofin, phenidone, indomethacin, naproxen, and ibuprofen were each used as the free base. The compounds of Formula (I) were used either as the free base or in the appropriate salt form. Levamisole was used as the hydrochloride salt. […] Nordihydroguaiaretic acid (NDGA) was solubilized in dimethylacetamide and diluted with olive oil for subcutaneous administration. Carrageenan-induced peritoneal exudate cells from normal or drug-treated mice were washed and suspended in 2.2 ml of phosphate buffered saline. […] The cell preparation was centrifuged at 1500 rpm for 10 min and the supernatant was extracted using a C-18 silica column. […] A tetrahydrofuran, methanol, water, acetic acid (25:30:45: 0.1) solvent system, adjusted to pH 5.5 with ammonium hydroxide, was used at a flow rate of 0.7 ml/min. Cell derived LTB4 was quantified utilizing standard curves constructed with known amounts of synthetic LTB4.

The test system of test [3] is Arachidonic Acid-Induced Cellular Infiltration into the Rat Air Pouch. Kind of test: Arachidonic acid-induced air pouch inflammation. It is filed as in vivo, rat (male Lewis).
Excerpt: as §1
(§2) The compounds of Formula (I) were used either as the free base or in the appropriate salt form. Levamisole was used as the hydrochloride salt. The compounds were homogenized in 0.5% tragacanth. Compounds were administered by gavage at the indicated dose in a final volume of 10 ml/kg. Nordihydroguaiaretic acid (NDGA) was solubilized in dimethylacetamide and diluted with olive oil for subcutaneous administration.
(§3) Rats were shaved on the dorsal flank, and then injected subcutaneously one day later with 20 ml of air to form a defined pouch, by the method of Sedgwick et al., J. Pathology, 141, 483-495 (1983). The air pouch was reinflated as necessary over the next 6 days. To assay anti-inflammatory activity, animals were treated orally with test compound or vehicle (10 ml/kg) one hour before injection of 2.0 ml of a 2.0% carrageenan suspension containing […] penicillin and 100 µg/ml streptomycin into the air pouch. In other experiments, 5 ml of 0.1% arachidonic acid in 0.2M bicarbonate buffer was injected two hours after drug treatment. Animals were sacrificed using CO2 three hours after instillation of irritant. The exudate was then aspirated from the pouch and neutrophil count and differential cell count were measured.

For the next test, the target named is T1, Cyclooxygenase (Rattus norvegicus, UniProt Q63921).
T1 construct: The activities of these enzymes in extracts of RBL-1 cells were assayed; host or cells: RBL-1
T1 sequence (Q63921 27-602): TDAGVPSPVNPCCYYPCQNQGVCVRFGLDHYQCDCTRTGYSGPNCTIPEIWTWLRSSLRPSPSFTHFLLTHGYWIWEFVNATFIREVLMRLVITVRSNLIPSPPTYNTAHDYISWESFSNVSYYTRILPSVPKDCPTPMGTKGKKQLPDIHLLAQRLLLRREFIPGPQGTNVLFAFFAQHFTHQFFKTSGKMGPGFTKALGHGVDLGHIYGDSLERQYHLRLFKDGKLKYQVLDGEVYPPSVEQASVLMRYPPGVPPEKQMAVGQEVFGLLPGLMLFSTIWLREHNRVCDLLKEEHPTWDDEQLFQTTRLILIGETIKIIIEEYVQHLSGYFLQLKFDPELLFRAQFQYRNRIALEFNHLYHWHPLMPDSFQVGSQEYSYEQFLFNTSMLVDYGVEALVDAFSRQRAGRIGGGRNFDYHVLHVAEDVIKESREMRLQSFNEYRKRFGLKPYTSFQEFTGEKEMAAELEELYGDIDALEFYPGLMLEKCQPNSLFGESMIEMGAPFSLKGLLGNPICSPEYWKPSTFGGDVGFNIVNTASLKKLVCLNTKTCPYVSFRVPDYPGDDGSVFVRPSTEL
Nature of the test: Cyclooxygenase activity (PGD2) in RBL-1 cell extracts, 10,000 x g supernatant. The following applies: Table 8. It is filed as biochemical.

Test [4] concerns Carrageenan-Induced Cellular Infiltration into the Rat Air Pouch. Kind of test: Carrageenan-induced air pouch inflammation. Type of test: in vivo, rat (male Lewis).
Excerpt: as §1, §2, §3

The test system of test [5] is Infiltration of Polymorphonuclear Leukocytes into Sites of Carrageenan-Induced Inflammation. Kind of test: Mouse carrageenan peritonitis (PMN infiltration). It is filed as in vivo, mouse (male Balb/c). As to conditions: carrageenan peritonitis, mice.
Excerpt: as §1, §2
Mice were pretreated with either the test compound or vehicle one hour before the intraperitoneal injection of a 1.0% carrageenan suspension in saline (0.2 ml/mouse). Mice were sacrificed by cervical dislocation two hours after injection, and 3.0 ml of phosphate buffered saline, without Ca^++ or Mg^++, was injected into the peritoneum. Following massage, a 2.0 ml aliquot of the lavage fluid was removed, and the total cell count determined on a Coulter counter and differential cell count determined by microscopic examination of Giesma-stained slides.

Protocol for Cyclooxygenase: For in vitro experiments, compounds were dissolved at appropriate concentrations in ethanol or DMSO (dimethylsulfoxide) (final concentration≤1.0%) and then diluted to final concentrations using the buffers indicated in the text.
RBL-1 cells were obtained from the American Type Culture Collection (#CRL 1378) and were grown at 37° C. (5% CO2 in air) in spinner culture in MEM supplemented with 10% heat inactivated fetal calf serum. Harvested cells were washed with 50 mM sodium phosphate buffer, pH 7.0, containing 1 mM EDTA and 0.1% gelatin, resuspended in fresh buffer (5×10^7 cells/ml) and disrupted by nitrogen cavitation using the Parr bomb at 750 psi for 10 min. The broken cell extract was then centrifuged at 10,000× g for 20 minutes (min) and the supernatant centrifuged at 100,000 xIg for 60 min. Aliquots (0.25 mls) of the supernatant were preincubated with or without drugs for 10 min, after which 10 μl CaCl2 (50 mM) was added and the reaction was initiated with 2.5 μl of 2.5 mM arachidonic acid-1-^14 C (final concentration was 25 μM; specific activity 20,000 dpm/nmole). After incubation for 3 min at 37° C., the reaction was terminated by addition of 2 volumes (0.5 ml) ice cold acetone and the sample was allowed to deproteinize on ice for 10 min prior to centrifugation at 1,000× g for 10 min. […] Arachidonic acid, 5-HETE, LTB4 and PGD2 were quantified with a Berthold LB 2832 autoscanner.

By inhibition is commonly meant how much of the control response was suppressed. Read a high inhibition as a response far below the control. For `O=C1CCN(c2ccccc2)N1` [Phenidone], in test [1] (100 mg/kg, 2 hours post arachidonic acid), the “Change in Paw Volume” value turned out to be 0.13 ± 0.05 mL. Further, the “Rat paw inflammatory response, result in words” value in test [1] (rat, in vivo) is on record as “inhibited significantly”. The inhibition at 200 mg/kg in test [2] (Experiment 2) stood at 21%; in test [2] (Experiment 3) it was 33%. In test [2] (mouse, in vivo), the “LTB4 production ex vivo, result in words” value is listed as “weaker but inhibition of LTB4 synthesis”. The entries for the “Cellular Infiltrate MN” value in test [3] (100 mg/kg) and in test [4] (100 mg/kg) were 2.2 ± 1.5 Total × 10^-6 and 3.5 ± 1.4 Total × 10^-6, respectively. For the same molecule, the “Cellular Infiltrate PMN” value in test [3] (100 mg/kg) came out at 1.3 ± 0.8 Total × 10^-6; in test [4] (100 mg/kg), 1.7 ± 0.6 Total × 10^-6. In addition, the “Exudate Volume” value is 2.8 ± 0.4 mL in test [3] (100 mg/kg) and 1.5 ± 0.8 mL in test [4] (100 mg/kg). The “Cell infiltration into arachidonic acid air pouch, result in words” value in test [3] (rat, in vivo) is “significantly reduced PMN and mononuclear cell infiltration”. Moreover, at Cyclooxygenase, the “IC50 Cyclooxygenase” value is “Inactive @ 100”. The “Cell infiltration into carrageenan air pouch, result in words” value in test [4] (rat, in vivo) was “reduction in the PMN count and the PMN:mononuclear cell ratio”. The “PMN infiltration, result in words” value in test [5] is reported as “effective”.
